{
  "source": "ChEMBL document CHEMBL6103584",
  "about": "“Hit to lead optimization of the 4-trifluoromethylquinoline derivatives as novel SGK1 inhibitors with potent anti-prostate cancer activity” (Eur J Med Chem, 2025)",
  "key": {"PC-3 [1]": {"tested_on": "PC-3", "test": "Anti-tumor activity against human PC-3 cells xenografted in BALB/c nude mouse assessed as reduction in tumor volume at 0.5 to 2 mg/kg, ip measured after 6 days", "format": "functional, organism-based", "settings": "dose 0.5-2 mg/kg, time 6.0 day"}, "[2]": {"test": "Toxicity in BALB/c nude mouse xenografted with human PC-3 cells assessed as change in red pulp dispersion in spleen tissue at 0.5 to 2 mg/kg, ip measured for 14 days by H and E staining based analysis", "format": "organism-based", "settings": "in vivo, 336 h, dose 0.5-2 mg/kg, time 14 day"}, "[3]": {"test": "Toxicity in BALB/c nude mouse xenografted with human PC-3 cells assessed as toxic effect on kidney at 0.5 to 2 mg/kg, ip measured for 14 days by H and E staining based analysis", "format": "organism-based", "settings": "in vivo, 336 h, dose 0.5-2 mg/kg, time 14 day"}, "Homo sapiens [4]": {"species_on_record": "Homo sapiens", "test": "Selectivity index, ratio of IC50 for inhibition of N-terminal GST-tagged truncated human SGK3 (119 to 496 residues) extracted from Sf21 cells to IC50 for inhibition of N-terminal GST-tagged truncated human SGK1 (61 to 431 residues) extracted from Sf21 cells"}, "[5]": {"test": "Toxicity in BALB/c nude mouse xenografted with human PC-3 cells assessed as change in kidney weight at 0.5 to 2 mg/kg, ip measured for 14 days by H and E staining based analysis", "format": "organism-based", "settings": "in vivo, 336 h, dose 0.5-2 mg/kg, time 14 day"}, "PC-3 [6]": {"tested_on": "PC-3", "test": "Inhibition of cell migration in human PC-3 cells measured after 48 hrs by wound healing assay", "format": "functional, cell-based", "settings": "dose 0.1-1 µM"}, "PC-3 [7]": {"tested_on": "PC-3", "test": "Anti-tumor activity against human PC-3 cells xenografted in BALB/c nude mouse assessed as reduction in tumor cell density at 0.5 to 2 mg/kg, ip measured for 14 days by H and E staining based analysis", "format": "functional, organism-based", "settings": "dose 0.5-2 mg/kg, time 14.0 day"}, "[8]": {"target": "T1, Serine/threonine-protein kinase Sgk1 (Homo sapiens) (UniProt O00141)", "T1 sequence (whole entry)": "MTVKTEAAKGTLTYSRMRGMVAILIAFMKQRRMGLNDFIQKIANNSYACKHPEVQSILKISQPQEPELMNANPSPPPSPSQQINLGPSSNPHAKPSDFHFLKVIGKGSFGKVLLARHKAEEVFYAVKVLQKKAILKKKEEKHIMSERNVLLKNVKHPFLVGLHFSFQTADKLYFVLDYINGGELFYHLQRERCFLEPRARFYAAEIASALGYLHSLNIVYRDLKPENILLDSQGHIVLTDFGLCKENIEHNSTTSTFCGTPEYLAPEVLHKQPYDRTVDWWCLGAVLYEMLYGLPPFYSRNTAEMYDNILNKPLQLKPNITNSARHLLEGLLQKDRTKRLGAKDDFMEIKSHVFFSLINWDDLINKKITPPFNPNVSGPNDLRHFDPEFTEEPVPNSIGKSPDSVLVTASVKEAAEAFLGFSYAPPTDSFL", "test": "Inhibition of SGK1 in human PC-3 cells assessed as decrease in MDM2 phosphorylation at Ser166 at 0.5 uM by Western blot analysis", "format": "cell-based", "settings": "time <= 48.0 hrs"}, "[9]": {"test": "Toxicity in BALB/c nude mouse xenografted with human PC-3 cells assessed as interstitial edema in renal tubules in kidney tissue at 0.5 to 2 mg/kg, ip measured for 14 days by H and E staining based analysis", "format": "organism-based", "settings": "in vivo, 336 h, dose 0.5-2 mg/kg, time 14 day"}, "[10]": {"test": "Toxicity in BALB/c nude mouse xenografted with human PC-3 cells assessed as interstitial vascular congestion in lung tissue at 0.5 to 2 mg/kg, ip measured for 14 days by H and E staining based analysis", "format": "organism-based", "settings": "in vivo, 336 h, dose 0.5-2 mg/kg, time 14 day"}, "[11]": {"test": "Toxicity in BALB/c nude mouse xenografted with human PC-3 cells assessed as thinning of alveolar epithelial cells in lung tissue at 0.5 to 2 mg/kg, ip measured for 14 days by H and E staining based analysis", "format": "organism-based", "settings": "in vivo, 336 h, dose 0.5-2 mg/kg, time 14 day"}, "[12]": {"test": "Toxicity in BALB/c nude mouse xenografted with human PC-3 cells assessed as toxic effect on heart at 0.5 to 2 mg/kg, ip measured for 14 days by H and E staining based analysis", "format": "organism-based", "settings": "in vivo, 336 h, dose 0.5-2 mg/kg, time 14 day"}, "[13]": {"test": "Toxicity in BALB/c nude mouse xenografted with human PC-3 cells assessed as change in heart weight at 0.5 to 2 mg/kg, ip measured for 14 days by H and E staining based analysis", "format": "organism-based", "settings": "in vivo, 336 h, dose 0.5-2 mg/kg, time 14 day"}, "PC-3 [14]": {"tested_on": "PC-3", "test": "Anti-tumor activity against human PC-3 cells xenografted in BALB/c nude mouse assessed as cell necrosis at 0.5 to 2 mg/kg, ip measured for 14 days by H and E staining based analysis", "format": "functional, organism-based", "settings": "dose 0.5-2 mg/kg, time 14.0 day"}, "[15]": {"target": "T1, Serine/threonine-protein kinase Sgk1 (Homo sapiens)", "test": "Inhibition of SGK1 in human PC-3 cells assessed as decrease in NEDD4-2 phosphorylation at Ser342 incubated for 48 hrs by Western blot analysis", "format": "cell-based", "settings": "dose 0.05-2 µM"}, "[16]": {"test": "Toxicity in BALB/c nude mouse xenografted with human PC-3 cells assessed as myocardial cell degeneration at 0.5 to 2 mg/kg, ip measured for 14 days by H and E staining based analysis", "format": "organism-based", "settings": "in vivo, 336 h, dose 0.5-2 mg/kg, time 14 day"}, "[17]": {"target": "T1, Serine/threonine-protein kinase Sgk1 (Homo sapiens)", "test": "Inhibition of SGK1 in human PC-3 cells assessed as decrease in NDRG1 phosphorylation at Thr346 at 0.5 uM by Western blot analysis", "format": "cell-based", "settings": "time <= 48.0 hrs"}, "[18]": {"test": "Toxicity in BALB/c nude mouse xenografted with human PC-3 cells assessed as interstitial vessel edema in heart tissue at 0.5 to 2 mg/kg, ip measured for 14 days by H and E staining based analysis", "format": "organism-based", "settings": "in vivo, 336 h, dose 0.5-2 mg/kg, time 14 day"}, "[19]": {"test": "Toxicity in BALB/c nude mouse xenografted with human PC-3 cells assessed as cell necrosis in kidney tissue at 0.5 to 2 mg/kg, ip measured for 14 days by H and E staining based analysis", "format": "organism-based", "settings": "in vivo, 336 h, dose 0.5-2 mg/kg, time 14 day"}, "[20]": {"test": "Toxicity in BALB/c nude mouse xenografted with human PC-3 cells assessed as change in liver weight at 0.5 to 2 mg/kg, ip measured for 14 days by H and E staining based analysis", "format": "organism-based", "settings": "in vivo, 336 h, dose 0.5-2 mg/kg, time 14 day"}, "[21]": {"target": "T1, Serine/threonine-protein kinase Sgk1 (Homo sapiens)", "test": "Inhibition of N-terminal GST-tagged truncated human SGK1 (61 to 431 residues) extracted from Sf21 cells at 10 uM preincubated for 10 mins followed by substrate/ATP addition measured after 50 mins by fluorescence based analysis relative to control", "format": "cell-free", "settings": "time 60.0 min"}, "[22]": {"test": "Toxicity in BALB/c nude mouse xenografted with human PC-3 cells assessed as change in spleen weight at 0.5 to 2 mg/kg, ip measured for 14 days by H and E staining based analysis", "format": "organism-based", "settings": "in vivo, 336 h, dose 0.5-2 mg/kg, time 14 day"}, "Homo sapiens [23]": {"species_on_record": "Homo sapiens", "test": "Selectivity index, ratio of IC50 for inhibition of N-terminal GST-tagged full-length human SGK2 (1 to 367 residues) extracted from Sf21 cells to IC50 for inhibition of N-terminal GST-tagged truncated human SGK1 (61 to 431 residues) extracted from Sf21 cells"}, "[24]": {"target": "T1, Serine/threonine-protein kinase Sgk1 (Homo sapiens)", "test": "Binding affinity to SGK1 in human PC-3 cells assessed as thermal stability at 0.01 to 10 uM incubated for 2 hrs followed by heat exposure at 53 degreeC for 3 mins by CETSA", "format": "cell-based", "settings": "dose 0.01-10 µM"}, "PC-3 [25]": {"tested_on": "PC-3", "test": "Anti-tumor activity against human PC-3 cells xenografted in BALB/c nude mouse assessed as relaxation of cell organisation at 0.5 to 2 mg/kg, ip measured for 14 days by H and E staining based analysis", "format": "functional, organism-based", "settings": "dose 0.5-2 mg/kg, time 14.0 day"}, "[26]": {"test": "Toxicity in BALB/c nude mouse xenografted with human PC-3 cells assessed as increase in volume of liver tissue at 0.5 to 2 mg/kg, ip measured for 14 days by H and E staining based analysis", "format": "organism-based", "settings": "in vivo, 336 h, dose 0.5-2 mg/kg, time 14 day"}},
  "note": "Calls of active or inactive are those of the source. The calls are words filed in the database; no cut-off is given here.",
  "data": [
    {"smiles": "COc1ccc(NC(=O)c2cc3c(C(F)(F)F)cc(Nc4ccc(N5CCNCC5)cc4OC)nc3cc2OC)cc1", "values": [
      {"measurement": "Activity", "setting": "PC-3 [1]", "result": "Active"},
      {"measurement": "Activity", "setting": "[2]", "result": "Non-toxic"},
      {"measurement": "Activity", "setting": "[3]", "result": "Non-toxic"},
      {"measurement": "Ratio IC50", "setting": "Homo sapiens [4]", "result": 5},
      {"measurement": "Activity", "setting": "[5]", "result": "Non-toxic"},
      {"measurement": "inhibition", "setting": "PC-3 [6]", "result": "Dose-dependent-effect"},
      {"measurement": "Activity", "setting": "PC-3 [7]", "result": "Active"},
      {"measurement": "inhibition", "setting": "[8]", "result": "Time-dependent-effect"},
      {"measurement": "Activity", "setting": "[9]", "result": "Non-toxic"},
      {"measurement": "Activity", "setting": "[10]", "result": "Non-toxic"},
      {"measurement": "Activity", "setting": "[11]", "result": "Non-toxic"},
      {"measurement": "Activity", "setting": "[12]", "result": "Non-toxic"},
      {"measurement": "Activity", "setting": "[13]", "result": "Non-toxic"},
      {"measurement": "Activity", "setting": "PC-3 [14]", "result": "Active"},
      {"measurement": "inhibition", "setting": "[15]", "result": "Dose-dependent-effect"},
      {"measurement": "Activity", "setting": "[16]", "result": "Non-toxic"},
      {"measurement": "inhibition", "setting": "[17]", "result": "Time-dependent-effect"},
      {"measurement": "Activity", "setting": "[18]", "result": "Non-toxic"},
      {"measurement": "Activity", "setting": "[19]", "result": "Non-toxic"},
      {"measurement": "Activity", "setting": "[20]", "result": "Non-toxic"},
      {"measurement": "inhibition", "setting": "[21]", "result": 95.3, "unit": "%"},
      {"measurement": "Activity", "setting": "[22]", "result": "Non-toxic"},
      {"measurement": "Ratio IC50", "setting": "Homo sapiens [23]", "result": 4.5},
      {"measurement": "Activity", "setting": "[24]", "result": "Active"},
      {"measurement": "Activity", "setting": "PC-3 [25]", "result": "Active"},
      {"measurement": "Activity", "setting": "[26]", "result": "Non-toxic"}
    ]}
  ]
}
